# Results published in PMC11012124, “Synthesis of Novel Triazine-Based Chalcones and 8,9-dihydro-7H-pyrimido[4,5-b][1,4]diazepines as Potential Leads in the Search of Anticancer, Antibacterial and Antifungal Agents” (International Journal of Molecular Sciences, 2024).
# How the values were obtained:
# [1] = tested on: OVCAR-5; test: cells; settings: Homo sapiens, OVCAR-5, 48 h; for CC50: read-out: LC50
# [2] = tested on: SF-295; test: cells; settings: Homo sapiens, SF-295, 48 h; for CC50: read-out: LC50
# [3] = tested on: A549/ATCC; test: cells; settings: Homo sapiens, A549, 48 h; for CC50: read-out: LC50
# [4] = tested on: NCI-H460; test: cells; settings: Homo sapiens, NCI-H460, 48 h; for CC50: read-out: LC50
# [5] = tested on: KM12; test: cells; settings: Homo sapiens, KM12, 48 h; for CC50: read-out: LC50
# [6] = tested on: HL-60(TB); test: cells; settings: Homo sapiens, HL-60, 48 h; for CC50: read-out: LC50
# [7] = tested on: MDA-MB-435; test: cells; settings: Homo sapiens, MDA-MB-435, 48 h; for CC50: read-out: LC50
# [8] = tested on: HOP-62; test: cells; settings: Homo sapiens, HOP-62, 48 h; for CC50: read-out: LC50
# [9] = tested on: UO-31; test: cells; settings: Homo sapiens, UO-31, 48 h; for CC50: read-out: LC50
# [10] = tested on: BT-549; test: cells; settings: Homo sapiens, BT-549, 48 h; for CC50: read-out: LC50
# [11] = tested on: 60 cancer cell lines; test: NCI-60 one-dose screen (10 μM); type: cell-based; settings: Homo sapiens; one dose of 10 μM, mean over 60 cancer cell lines; read-out: Mean Growth Percent (MGP)
# Text: Additionally, the mean of the growth percentages (MGP) of each compound against all the 60 cancer cell lines is also reported, which is used as one of the selection criteria to continue with tests at five concentration doses.
# [12] = tested on: OVCAR-8; test: cells; settings: Homo sapiens, OVCAR-8, 48 h; for CC50: read-out: LC50
# [13] = tested on: SN12C; test: cells; settings: Homo sapiens, 48 h; for CC50: read-out: LC50
# [14] = tested on: ACHN; test: cells; settings: Homo sapiens, 48 h; for CC50: read-out: LC50
# [15] = tested on: HCT-15; test: cells; settings: Homo sapiens, HCT-15, 48 h; for CC50: read-out: LC50
# [16] = tested on: COLO 205; test: cells; settings: Homo sapiens, COLO 205, 48 h; for CC50: read-out: LC50
# [17] = tested on: SF-268; test: cells; settings: Homo sapiens, SF-268, 48 h; for CC50: read-out: LC50
# [18] = tested on: UACC-257; test: cells; settings: Homo sapiens, UACC-257, 48 h; for CC50: read-out: LC50
# [19] = tested on: IGROV1; test: cells; settings: Homo sapiens, IGROV-1, 48 h
# [20] = tested on: HCT-116; test: cells; settings: Homo sapiens, HCT-116, 48 h; for CC50: read-out: LC50
# [21] = tested on: RPMI-8226; test: cells; settings: Homo sapiens, RPMI-8226, 48 h; for CC50: read-out: LC50
# [22] = tested on: SW-620; test: cells; settings: Homo sapiens, SW-620, 48 h; for CC50: read-out: LC50
# [23] = tested on: EKVX; test: cells; settings: Homo sapiens, 48 h; for CC50: read-out: LC50
# [24] = tested on: MALME-3M; test: cells; settings: Homo sapiens, 48 h
# [25] = tested on: CCRF-CEM; test: cells; settings: Homo sapiens, 48 h; for CC50: read-out: LC50
# [26] = tested on: OVCAR-4; test: cells; settings: Homo sapiens, OVCAR-4, 48 h; for CC50: read-out: LC50
# [27] = tested on: SK-MEL-28; test: cells; settings: Homo sapiens, SK-MEL-28, 48 h; for CC50: read-out: LC50
# [28] = tested on: SK-MEL-2; test: cells; settings: Homo sapiens, SK-MEL-2, 48 h; for CC50: read-out: LC50
# [29] = tested on: SNB-19; test: cells; settings: Homo sapiens, SNB-19, 48 h
# [30] = tested on: M14; test: cells; settings: Homo sapiens, M14, 48 h; for CC50: read-out: LC50
# [31] = tested on: SNB-75; test: cells; settings: Homo sapiens, SNB-75, 48 h; for CC50: read-out: LC50
# [32] = tested on: NCI-H322M; test: cells; settings: Homo sapiens, 48 h; for CC50: read-out: LC50
# [33] = tested on: 786-0; test: cells; settings: Homo sapiens, 786-0, 48 h; for CC50: read-out: LC50
# [34] = tested on: U251; test: cells; settings: Homo sapiens, U-251, 48 h; for GI50: U251, 48 h; for CC50: read-out: LC50
# [35] = tested on: NCI-H226; test: cells; settings: Homo sapiens, NCI-H226, 48 h; for CC50: read-out: LC50
# [36] = tested on: SK-MEL-5; test: cells; settings: Homo sapiens, SK-MEL-5, 48 h; for CC50: read-out: LC50
smiles,measurement,setting,value
Nc1nc(N)c2c(n1)NC(c1ccc(F)cc1)CC(c1ccc(Nc3nc(NCCO)nc(Nc4ccc(Cl)cc4)n3)cc1)=N2 (centres unmarked) [33f],GI50,[1],5.1 µM
same,CC50,[1],> 100 µM
same,GI50,[2],1.96 µM
same,CC50,[2],7.15 µM
same,GI50,[3],3.12 µM
same,CC50,[3],> 100 µM
same,GI50,[4],1.71 µM
same,CC50,[4],7.73 µM
same,GI50,[5],1.68 µM
same,CC50,[5],8.22 µM
same,GI50,[6],0.863 µM
same,CC50,[6],> 100 µM
same,GI50,[7],1.7 µM
same,CC50,[7],7.42 µM
same,GI50,[8],1.77 µM
same,CC50,[8],11.7 µM
same,GI50,[9],3.07 µM
same,CC50,[9],> 100 µM
same,GI50,[10],1.56 µM
same,CC50,[10],6.47 µM
same,activity at 10 µM,[11],-3.41%
same,GI50,[12],1.16 µM
same,CC50,[12],6.81 µM
same,GI50,[13],2.08 µM
same,CC50,[13],> 100 µM
same,GI50,[14],3.22 µM
same,CC50,[14],> 100 µM
same,GI50,[15],1.03 µM
same,CC50,[15],7.87 µM
same,GI50,[16],1.49 µM
same,CC50,[16],5.8 µM
same,GI50,[17],2.85 µM
same,CC50,[17],76 µM
same,GI50,[18],1.85 µM
same,CC50,[18],6.69 µM
same,GI50,[19],1.7 µM
same,GI50,[20],1.2 µM
same,CC50,[20],5.23 µM
same,GI50,[21],1.01 µM
same,CC50,[21],> 100 µM
same,GI50,[22],1.6 µM
same,CC50,[22],6.68 µM
same,GI50,[23],1.66 µM
same,CC50,[23],24 µM
same,GI50,[24],1.66 µM
same,GI50,[25],0.754 µM
same,CC50,[25],> 100 µM
same,GI50,[26],1.93 µM
same,CC50,[26],> 100 µM
same,GI50,[27],1.7 µM
same,CC50,[27],5.93 µM
same,GI50,[28],1.67 µM
same,CC50,[28],5.75 µM
same,GI50,[29],1.76 µM
same,GI50,[30],1.66 µM
same,CC50,[30],6.58 µM
same,GI50,[31],3.35 µM
same,CC50,[31],45.4 µM
same,GI50,[32],2.43 µM
same,CC50,[32],33.5 µM
same,GI50,[33],1.36 µM
same,CC50,[33],7.12 µM
same,GI50,[34],1.37 µM
same,CC50,[34],5.43 µM
same,GI50,[35],2.49 µM
same,CC50,[35],37.9 µM
same,GI50,[36],1.46 µM
same,CC50,[36],5.3 µM
Nc1nc(N)c2c(n1)NC(c1ccc(C(F)(F)F)cc1)CC(c1ccc(Nc3nc(NCCO)nc(Nc4ccc(Cl)cc4)n3)cc1)=N2 (centres unmarked) [33g],GI50,[1],1.6 µM
same,CC50,[1],5.64 µM
same,GI50,[2],1.79 µM
same,CC50,[2],6.14 µM
same,GI50,[3],1.73 µM
same,CC50,[3],7.08 µM
same,GI50,[4],1.96 µM
same,CC50,[4],8.23 µM
same,GI50,[5],1.37 µM
same,CC50,[5],6.05 µM
same,GI50,[6],1.28 µM
same,CC50,[6],> 100 µM
same,GI50,[7],1.4 µM
same,CC50,[7],5.3 µM
same,GI50,[8],1.63 µM
same,CC50,[8],6.14 µM
same,GI50,[9],1.43 µM
same,CC50,[9],5.3 µM
same,GI50,[10],1.57 µM
same,CC50,[10],6.34 µM
same,activity at 10 µM,[11],-44.8%
same,GI50,[12],1.5 µM
same,CC50,[12],5.75 µM
same,GI50,[13],1.76 µM
same,CC50,[13],6.35 µM
same,GI50,[14],1.5 µM
same,CC50,[14],5.31 µM
same,GI50,[15],1.15 µM
same,CC50,[15],5.83 µM
same,GI50,[16],1.33 µM
same,CC50,[16],5.25 µM
same,GI50,[17],1.66 µM
same,CC50,[17],7.27 µM
same,GI50,[18],1.75 µM
same,CC50,[18],5.82 µM
same,GI50,[19],1.37 µM
same,GI50,[20],1.05 µM
same,CC50,[20],5.54 µM
same,GI50,[21],1.51 µM
same,CC50,[21],> 100 µM
same,GI50,[22],1.6 µM
same,CC50,[22],7.04 µM
same,GI50,[23],1.52 µM
same,CC50,[23],5.75 µM
same,GI50,[24],1.74 µM
same,GI50,[25],1.23 µM
same,CC50,[25],> 100 µM
same,GI50,[26],2.23 µM
same,CC50,[26],> 100 µM
same,GI50,[27],1.53 µM
same,CC50,[27],5.37 µM
same,GI50,[28],1.67 µM
same,CC50,[28],5.64 µM
same,GI50,[29],1.51 µM
same,CC50,[29]; read-out: LC50,5.76 µM
same,GI50,[30],1.64 µM
same,CC50,[30],5.72 µM
same,GI50,[31],1.7 µM
same,CC50,[31],9.06 µM
same,GI50,[32],1.66 µM
same,CC50,[32],5.63 µM
same,GI50,[33],1.39 µM
same,CC50,[33],6.09 µM
same,GI50,[34],1.24 µM
same,CC50,[34],5.16 µM
same,GI50,[35],1.84 µM
same,CC50,[35],8.31 µM
same,GI50,[36],1.55 µM
same,CC50,[36],5.37 µM
